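Test compounds were applied to cells in 96-well plates for 48 hours at 5 doses. At the GI50, growth is halved. At the TGI there is no net growth.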
Assays:
Assay in all cases: NCI-60 cell line screen, 48 h
ACHN renal = test system: ACHN renal
MCF7 breast = test system: MCF7 breast
HCT-15 colon = test system: HCT-15 colon
HOP-92 NSCLC = test system: HOP-92 NSCLC
NCI-H23 lung = test system: NCI-H23 lung
CAKI-1 renal = test system: CAKI-1 renal
SK-MEL-5 melanoma = test system: SK-MEL-5 melanoma
HL-60(TB) leukemia = test system: HL-60(TB) leukemia
DU-145 prostate = test system: DU-145 prostate
OVCAR-3 ovarian = test system: OVCAR-3 ovarian
UACC-257 melanoma = test system: UACC-257 melanoma
COLO 205 colon = test system: COLO 205 colon
HOP-62 NSCLC = test system: HOP-62 NSCLC
U251 CNS = test system: U251 CNS
OVCAR-4 ovarian = test system: OVCAR-4 ovarian
UACC-62 melanoma = test system: UACC-62 melanoma
EKVX NSCLC = test system: EKVX NSCLC
SK-MEL-28 melanoma = test system: SK-MEL-28 melanoma
K-562 leukemia = test system: K-562 leukemia
MDA-MB-468 breast = test system: MDA-MB-468 breast
A549 NSCLC = test system: A549 NSCLC
SK-OV-3 ovarian = test system: SK-OV-3 ovarian
SN12C renal = test system: SN12C renal
NCI-H522 lung = test system: NCI-H522 lung
M14 melanoma = test system: M14 melanoma

C=C1CC[C@@H]2[C@]3(C)COC(c4cn[nH]c4-c4cccc(Br)c4)O[C@@H]3CC[C@@]2(C)[C@@H]1C/C=C1/C(=O)OCC1O (stereo not given in full) gave a GI50 (ACHN renal) of 1.95 µM, a TGI (ACHN renal) of 3.97 µM and a GI50 (MCF7 breast) of 1.28 µM. For the same molecule, the TGI (MCF7 breast) was 3.95 µM, the GI50 (HCT-15 colon) was 1.66 µM and the TGI (HCT-15 colon) was 3.78 µM. For the same molecule, the GI50 (HOP-92 NSCLC) was 2.21 µM, the TGI (HOP-92 NSCLC) was 5.1 µM and the GI50 (NCI-H23 lung) was 1.84 µM. It also gave a TGI (NCI-H23 lung) of 3.62 µM, a GI50 (CAKI-1 renal) of 2.77 µM and a TGI (CAKI-1 renal) of 7.05 µM. For the same molecule, the GI50 (SK-MEL-5 melanoma) was 1.75 µM, the TGI (SK-MEL-5 melanoma) was 3.19 µM and the GI50 (HL-60(TB) leukemia) was 1.87 µM. For the same molecule, the TGI (HL-60(TB) leukemia) was 7.43 µM, the GI50 (DU-145 prostate) was 3.08 µM and the TGI (DU-145 prostate) was 9.43 µM. The GI50 (OVCAR-3 ovarian) was 2.02 µM, the TGI (OVCAR-3 ovarian) was 3.99 µM and the GI50 (UACC-257 melanoma) was 2.85 µM. It also gave a TGI (UACC-257 melanoma) of 9.7 µM, a GI50 (COLO 205 colon) of 2.18 µM and a TGI (COLO 205 colon) of 4.48 µM. It also gave a GI50 (HOP-62 NSCLC) of 3.78 µM, a TGI (HOP-62 NSCLC) of 13.7 µM and a GI50 (U251 CNS) of 1.81 µM. The TGI (U251 CNS) was 3.36 µM, the GI50 (OVCAR-4 ovarian) was 4.47 µM and the TGI (OVCAR-4 ovarian) was 30.1 µM. For the same molecule, the GI50 (UACC-62 melanoma) was 1.55 µM, the TGI (UACC-62 melanoma) was 3.15 µM and the GI50 (EKVX NSCLC) was 2.15 µM. The TGI (EKVX NSCLC) was 4.81 µM, the GI50 (SK-MEL-28 melanoma) was 1.93 µM and the TGI (SK-MEL-28 melanoma) was 3.83 µM. For the same molecule, the GI50 (K-562 leukemia) was 1.93 µM, the TGI (K-562 leukemia) was 8.65 µM and the GI50 (MDA-MB-468 breast) was 1.61 µM. It also gave a TGI (MDA-MB-468 breast) of 3.22 µM, a GI50 (A549 NSCLC) of 3.37 µM and a TGI (A549 NSCLC) of 14.1 µM. The GI50 (SK-OV-3 ovarian) was 5.8 µM, the TGI (SK-OV-3 ovarian) was 21.4 µM and the GI50 (SN12C renal) was 2.03 µM. The TGI (SN12C renal) was 4.78 µM, the GI50 (NCI-H522 lung) was 1.9 µM and the TGI (NCI-H522 lung) was 3.77 µM. The GI50 (M14 melanoma) was 2.52 µM and the TGI (M14 melanoma) was 7.22 µM.
